Laboratory results published in patent US8394799B2, “Compounds that inhibit HIF-1 activity, the method for preparation thereof and the pharmaceutical composition containing them as an effective component” (Korea Research Institute of Bioscience and Biotechnology, priority 2006, dated 2013).

Experiments:
HIF-1 [1] = experiment: HRE reporter assay, HIF activity % remaining, AGS cells; format: cell-based, human; conditions: summary in words of the data of Table 1 and Table 2; cell line not stated
Description: (§1) Six tandem repeats of HRE (hypoxia Responsive Element 5′-ACGTG-3′), which is present in a human VEGF gene, was inserted into the multi-cloning region of a pGL3-basic vector (Promega) containing a luciferase gene as a reporter gene to produce a recombinant pGL3-HRE-luciferase vector which was then used to assay the compounds prepared in the above Examples for inhibition activity against HIF-mediated transcriptional activity.
The hepatocellular carcinoma cell line HepG2 or Hep3B, both available from ATCC (American Type Culture Collection), and the gastric carcinoma cell line AGS, available from ATCC, were grown at 70% confluency in culture dishes and co-transfected with an internal control vector (pRL-CMV, Promega) and the recombinant pGL3-HRE-luciferase vector using Lipofectamine Plus Reagent (Invitrogen). HepG2 and AGS cells were treated with the compound of Chemical Formula 1A while Hep3B and AGS cells were treated with the compound of Chemical Formula 1B. The compound of Chemical Formula 1A was used in a concentration of 10 μm for HepG2 or AGS cells. The compound of Chemical Formula 1B was used in a concentration of 30 μM for Hep3B and in a concentration of 10 μM for AGS cells. […] The compounds prepared in Examples above were assayed for inhibition activity against HIF-1 by measuring the activity of the luciferase, induced in hypoxia, using a Dual-luciferase reporter assay system (Promoga). In this regard, the luciferase activity was measured for 10 sec using a Microlumat Plus luminometer (EG&G Berthold). In the meanwhile, the renilla luciferase activity from the control vector PRL-CMV (Promega) was measured to normalize the data obtained.
On the basis of the renilla luciferase activity, the HIF activity % remaining after treatment with the compounds was corrected.

HIF-1 [2] = experiment: Assay of IC50, SK-Hep-1 cells (same manner); format: cell-based; conditions: Homo sapiens, SK-HEP1; SK-Hep-1 cell line, compounds 0.01 to 100 μM for 16 hrs
Description: as §1

EPO or VEGF = experiment: Expression of EPO or VEGF, target genes of HIF-1, in hypoxia (RT-PCR); format: cell-based, human; conditions: RT-PCR, 0, 1, 3 and 10 μM, 12 hrs in 1% O2, FIG. 3
Description: The inhibitory effect of the compounds of the present invention on HIF-1 activity was confirmed by assaying the compounds prepared in Examples for inhibition activity on the expression of EPO or VEGF, a representative target gene of HIF-1 through an analysis of RT-PCR (reverse transcriptase polymerase chain reaction). VEGF, a target gene of HIF-1, encodes an angiogenesis factor playing a pivotal role in the growth and metastasis of cancer and EPO is a hematosis hormone gene, and both genes have been known for being deeply related to the development and the aggravation of cancer. The compounds of the present invention were measured for inhibition of VEGF expression in AGS, Hep3B and HepG2 cells. In this regard, the hepatocellular carcinoma cell line Hep3B was treated with compounds prepared in Examples 18 and 126 as follows.
After being grown to 70% confluency in culture dishes, HepG2 cells (American Type Culture Collection) were treated with various concentrations (0 μm, 1 μm 3 μM and 10 μm) of compounds prepared in Examples 18, 44, 113 or 126 and incubated for 12 hrs in hypoxia (1% O2, 94%, N2, and 5% CO2, expressed as ‘1% O2’ in FIG. 2). Total RNA was isolated using an RNA Mini kit (Qiagen). From the total RNA (2 μg) thus obtained, cDNA was synthesized using an RT-PCR kit (Invitrogen), and was used to amplify EPO or VEGF by PCR in the presence of EPO or VEGF-specific primers. EPO or VEGF expression was quantitatively analyzed by running the PCR products on agarose gel. As an internal control, GAPDH was simultaneously amplified so as to analyze the selective inhibition of each compound for VEGF. Base sequences of primers used for the amplification of EPO, VEGF and GAPDH used in the present invention were as follows.

HIF-1 [3] = experiment: Assay of IC50, Hep3B cells (HRE-luciferase transfected); format: cell-based; conditions: Homo sapiens
Description: as §1

HIF-1 [4] = experiment: Assay of IC50, AGS cells (HRE-luciferase transfected); format: cell-based; conditions: Homo sapiens
Description: as §1

[5] = system: metastatic breast carcinoma cell line MDA-MB-435; experiment: In vivo anticancer activity in nude mice implanted with MDA-MB-435; conditions: for inhibition of the growth of the cancer cells compared to the control: once a day, MDA-MB-435 in nude mice; for deaths in six mice of each group: mouse, in vivo
Description: Female nude mice 5-6 weeks old (Crj:BALB/c nu/nu, Charles River) were bred in germ-free breeding rooms maintained at constant temperature and humidity. The nude mice were anesthetized before incision of the chest skin. The metastatic breast carcinoma cell line MDA-MB-435, obtained from DR D. R. Welch, Univ. Alabama, was implanted at a count of 10^6 cells/mouse into the mammary gland fat pad, and the incisions were then closed with surgical clips. The nude mice were divided into test groups and a control group, each consisting of 6 mice. […] For the control group, Solution A alone was used at a dose of 100 μl once a day. Thereafter, tumor volumes and body weights were measured once a week. Tumor volumes were calculated according to the following Mathematic Formula 1. Tumor Volume (mm^3)=(Length of Long Axis,mm)×(Length of Short Axis,mm)^2×0.5 <Mathematic Formula 1>

[6] = Acute toxicity, single oral administration in mice; conditions: mouse, in vivo, 300 mg/kg
Experimental: An acute cytotoxicity assay was conducted with five-week-old SPF C57BL/6 mice (Samtako BioKorea) as follows.

Row | Compound | inhibition activity against the transcription mediated by HIF-1, induced in hypoxia (HIF-1 [1]) | IC50 (HIF-1 [2]) [nM] | expression of EPO or VEGF in hypoxia (EPO or VEGF) | IC50 (HIF-1 [3]) [nM] | IC50 (HIF-1 [4]) [nM] | inhibition of the growth of the cancer cells compared to the control ([5]; 20 mg/kg) [%] | inhibition of the growth of the cancer cells compared to the control ([5]; 50 mg/kg) [%] | deaths in six mice of each group [5] | toxicity (death, clinical syndromes, body weight, autopsy) [6]
1 | NC(=O)c1ccnc(NC(=O)COc2ccc(C34CC5CC(CC(C5)C3)C4)cc2)c1 [Example 113, 2-[2-(4-adamantan-1-yl-phenoxy)acetylamino]-isonicotinamide] | excellent inhibition activity | 590 | inhibit the expression of EPO or VEGF dose-dependently | – | – | – | – | – | –
2 | O=C(COc1ccc(C23CC4CC(CC(C4)C2)C3)cc1)Nc1cccc(C(=O)O)c1 [Example 44, 3-[2-(4-Adamantan-1-yl-phenoxy)-acetylamino]-benzoic acid] | excellent inhibition activity | – | inhibit the expression of EPO or VEGF dose-dependently | 5000 | 2500 | – | – | – | –
3 | O=C(COc1ccc(C23CC4CC(CC(C4)C2)C3)cc1)Nc1cc(C(=O)O)ccc1O [Example 48, 3-[2-(4-Adamantan-1-yl-phenoxy)-acetylamino]-4-hydroxy-benzoic acid] | excellent inhibition activity | – | – | 400 | 350 | – | – | – | –
4 | NC(=O)c1cccc(NC(=O)COc2ccc(C34CC5CC(CC(C5)C3)C4)cc2)c1 [Example 23, 3-[2-(4-Adamantan-1-yl-phenoxy)acetyl-amino]-benzamide] | excellent inhibition activity | – | – | 4300 | 1000 | – | – | – | –
5 | COC(=O)c1ccc(O)c(NC(=O)COc2ccc(C34CC5CC(CC(C5)C3)C4)cc2)c1 [Example 18, 3-[2-(4-Adamantan-1-yl-phenoxy)acetyl-amino]-4-hydroxy benzoic acid methyl ester] | excellent inhibition activity | – | inhibit the expression of EPO or VEGF dose-dependently | 2600 | 700 | 46.5 | 64.6 | No dead were observed | no toxicity
6 | COC(=O)c1ccc2[nH]c(COc3ccc(C45CC6CC(CC(C6)C4)C5)cc3)nc2c1 [Example 126, 2-(4-adamantan-1-yl-phenoxymethyl)-1H-benzoimidazole-5-carboxylic acid methyl ester] | excellent inhibition activity | – | inhibit the expression of EPO or VEGF dose-dependently | – | – | 53 | 58.6 | No dead were observed | no toxicity
